A short description of data set [1]: Selectivity index, ratio of CC50 for african green monkey Vero cells to IC50 for Leishmania mexicana MHOM/MX/ISETGS. Type of data set: functional.
The nature of data set [2]: Selectivity index, ratio of CC50 for african green monkey Vero cells to IC50 for Trypanosoma cruzi MHOM/MX/1994/Ninoa. Type of data set: functional.
The nature of data set [3]: Selectivity index, ratio of CC50 for african green monkey Vero cells to IC50 for Plasmodium berghei. Type of data set: functional.
In data set [4] the test system is Giardia intestinalis. The data set can be described thus: Antiprotozoan activity against Giardia intestinalis IMSS:0696:1 trophozoites after 48 hrs. The data set is classed as functional, organism-based. The settings on record: Giardia duodenalis, IMSS:0696:1, 48 h.
In data set [5] the test system is Trichomonas vaginalis. The data set can be described thus: Antiprotozoan activity against Trichomonas vaginalis GT3 trophozoites after 48 hrs. The data set is classed as functional, organism-based. The settings on record: GT3, 48 h.
Data set [6] relates to Entamoeba histolytica. As to the kind of experiment: Antiprotozoan activity against Entamoeba histolytica HM1-IMSS trophozoites after 48 hrs. The data set is classed as functional, organism-based.
Data set [7] concerns Leishmania mexicana. As to the kind of experiment: Antileishmanial activity against Leishmania mexicana MHOM/MX/ISETGS promastigotes after 72 hrs by neubauer chamber. The data set is classed as functional, organism-based.
The subject of data set [8] is Trypanosoma cruzi. As to the kind of experiment: Antitrypanosomal activity against Trypanosoma cruzi MHOM/MX/1994/Ninoa epimastigotes after 72 hrs by neubauer chamber. The data set is classed as functional, organism-based.
Data set [9] deals with Plasmodium berghei. The data set can be described thus: Antimalarial activity against Plasmodium berghei schizonts isolated from parasitized erythrocytes infected Wistar rat measured 16 hrs post compound exposure. Type of data set: functional, organism-based.
Data set [10] in a line: Cytotoxicity against african green monkey Vero cells after 72 hrs by MTT assay. The data set is classed as cell-based. The following applies: chlorocebus sabaeus.
A short description of data set [11]: Selectivity index, ratio of CC50 for african green monkey Vero cells to IC50 for Giardia intestinalis IMSS:0696:1. The data set is classed as functional.
Data set [12] can be described thus: Selectivity index, ratio of CC50 for african green monkey Vero cells to IC50 for Trichomonas vaginalis GT3. Type of data set: functional.
Data set [13] in a line: Selectivity index, ratio of CC50 for african green monkey Vero cells to IC50 for Entamoeba histolytica HM1-IMSS. The data set is classed as functional.
Data set [14] concerns Entamoeba histolytica. As to the kind of experiment: Ratio of IC50 for pentamidine to compound for Entamoeba histolytica HM1-IMSS. Type of data set: functional.
Data set [15] deals with Trypanosoma cruzi. The data set can be described thus: Ratio of IC50 for benzanidazole to compound for Trypanosoma cruzi MHOM/MX/1994/Ninoa. Type of data set: functional.

Broadly, the IC50 is the concentration that gives 50% inhibition. As usually defined, the CC50 is the concentration that lowers cell viability or growth by half.

In the case of `CC(=O)Oc1ccccc1C(=O)Nc1ncc([N+](=O)[O-])s1` [NITAZOXANIDE], the “Ratio CC50/IC50” value in [1] worked out at 135; in data set [2], 44; in [3] it was 214; in data set [11] it was 686; in [12] it was 12250; in [13], 1653. Besides, the 50% inhibitory concentration (IC50) in [4] amounted to 1.21 µM; in data set [5], 0.068 µM; in [6], 0.504 µM; in [7], 6.18 µM; in [8], 18.7 µM; in [9], 3.89 µM. The same molecule had a cytotoxic concentration (CC50) at 72 h in data set [10] of 833 µM.

With `CC(=O)Oc1ccccc1C(=O)Nc1nc2ccc([N+](=O)[O-])cc2s1`, the “Ratio CC50/IC50” value in data set [1] was 506; in [2] it was 140; in data set [3], 282; in data set [11], 2300; in [12], 811; in data set [13], 194. The “Ratio IC50” value in data set [14] came to 10; in data set [15], 7. Moreover, the IC50 in [4] stood at 0.297 µM; in data set [5] it was 0.842 µM; in data set [6], 3.52 µM; in [7], 1.35 µM; in [8] it was 4.89 µM; in data set [9] it was 2.42 µM. In [10], this molecule showed a CC50 at 72 h of 683 µM.

As to `N=C(N)c1ccc(OCCCCCOc2ccc(C(=N)N)cc2)cc1` [PENTAMIDINE], the IC50 was greater than 50 µM in data set [8] and 2.94 µM in [9]. Further, the midpoint of cytotoxicity in data set [10], the CC50 at 72 h, lay at 47 µM.

In the case of `O=C(Nc1ncc([N+](=O)[O-])s1)c1ccccc1O` [TIZOXANIDE], the “Ratio CC50/IC50” value in data set [1] was found to be 63; in data set [2], 22; in data set [3], 74; in data set [11], 542; in data set [12], 1839; in [13], 316. Moreover, the IC50 stood at 0.716 µM in [4]; 0.211 µM in data set [5]; 1.23 µM in data set [6]; 6.19 µM in [7]; 17.5 µM in data set [8]; 5.24 µM in data set [9]. In data set [10], this molecule displayed a 50% cytotoxic concentration (CC50) at 72 h of 388 µM.

Take `O=C(Cn1ccnc1[N+](=O)[O-])NCc1ccccc1` [BENZNIDAZOLE]: the IC50 was greater than 50 µM in [7] and 4.07 µM in data set [9]. This molecule gave a CC50 at 72 h in data set [10] of 14 µM.

As to `O=C(Nc1nc2ccc([N+](=O)[O-])cc2s1)c1ccccc1O`, the “Ratio CC50/IC50” value in data set [3] was 256; in data set [11] it was 1029; in data set [12] it was 283; in [13], 76. Moreover, the IC50 in [4] is 0.59 µM; in data set [5], 2.15 µM; in data set [6] it was 8.02 µM; in data set [7], greater than 50 µM; in data set [8], greater than 50 µM; in data set [9], 2.37 µM. Moreover, in data set [10], it took 607 µM to reach half-maximal cytotoxicity (CC50 at 72 h).

Consider `Cc1ncc([N+](=O)[O-])n1CCO` [METRONIDAZOLE], for which the IC50 in data set [7], in data set [8] and in data set [9] was greater than 50 µM throughout. The molecule also gave a CC50 at 72 h in data set [10] of 387 µM.

The values above are taken from ChEMBL document CHEMBL1777759, “Synthesis of benzologues of Nitazoxanide and Tizoxanide: a comparative study of their in vitro broad-spectrum antiprotozoal activity” (Bioorg Med Chem Lett, 2011).
